Our source for the Kd values is article PMC11344421, “Polyphyllin I exerts anti-hepatocellular carcinoma activity by targeting ZBTB16 to activate the PPARγ/RXRα signaling pathway” (Chinese Medicine, 2024).

In the assay the target is T1, recombinant human (rh) ZBTB16 protein (Homo sapiens, UniProt Q05516).
T1 construct: recombinant human protein immobilised on sensor
T1 sequence (Q05516 1-673): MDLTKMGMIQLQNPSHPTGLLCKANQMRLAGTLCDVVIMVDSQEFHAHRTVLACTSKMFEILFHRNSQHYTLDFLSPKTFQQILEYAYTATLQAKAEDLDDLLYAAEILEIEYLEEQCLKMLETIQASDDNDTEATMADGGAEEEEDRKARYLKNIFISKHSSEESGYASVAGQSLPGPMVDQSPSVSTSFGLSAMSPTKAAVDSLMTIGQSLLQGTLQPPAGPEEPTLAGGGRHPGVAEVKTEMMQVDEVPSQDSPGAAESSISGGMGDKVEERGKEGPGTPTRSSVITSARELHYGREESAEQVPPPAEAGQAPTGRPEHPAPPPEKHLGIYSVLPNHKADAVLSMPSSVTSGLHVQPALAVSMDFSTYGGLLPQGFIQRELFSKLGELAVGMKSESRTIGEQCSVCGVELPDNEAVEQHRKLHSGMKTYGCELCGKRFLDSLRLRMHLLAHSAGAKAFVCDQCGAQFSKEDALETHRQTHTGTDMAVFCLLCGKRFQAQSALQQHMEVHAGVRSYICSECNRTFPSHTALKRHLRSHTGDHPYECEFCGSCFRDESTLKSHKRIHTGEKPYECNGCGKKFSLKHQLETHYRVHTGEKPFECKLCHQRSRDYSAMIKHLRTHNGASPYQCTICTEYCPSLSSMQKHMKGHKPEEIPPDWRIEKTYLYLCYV
Description: surface plasmon resonance (OpenSPR, ZBTB16 immobilised by EDC/NHS). It is filed as binding. (In general: SPR reads the build-up and loss of mass on a sensor chip optically.)

The Kd is the free concentration of one partner at which half of the binding sites on the other are occupied at equilibrium, for simple one-to-one binding.

Consider `C[C@@H]1CC[C@@]2(OC1)O[C@H]1C[C@H]3[C@@H]4CC=C5C[C@@H](O[C@@H]6O[C@H](CO)[C@@H](O[C@@H]7O[C@@H](CO)[C@H](O)[C@H]7O)[C@H](O)[C@H]6O[C@@H]6O[C@@H](C)[C@H](O)[C@@H](O)[C@H]6O)CC[C@]5(C)[C@H]4CC[C@]3(C)[C@H]1[C@@H]2C` [Polyphyllin I], for which the Kd is 5.5 µM.
